Source: PubChem BioAssay AID1963870 (Molecular Pharmacology Branch, DTP, NCI, 2024)

System: 292921-168-R-J2-PDC KRAS tumor spheroid viability
Experiment: Anticancer human tumor 292921-168-R-J2-PDC patient-derived pancreatic carcinoma cell line growth inhibition [KRAS2]
Settings: spheroids with HUVEC and MSC; for viability, T/C: stronger effect = lower value
Procedure, shortened: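 Combination screen of spheroid viability in tumor-cell co-cultures with endothelial (HUVEC) and mesenchymal stem cell stroma. Each agent was tested in half-log dilutions, topping at clinical Cmax or at 10 microM without a known Cmax.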

[1] = curve of first compound, second compound 0.1 µM
[2] = curve of first compound, second compound 0.316 µM
[3] = curve of first compound, second compound 1 µM
[4] = curve of first compound, second compound 3.16 µM
[5] = curve of first compound, second compound 10 µM
[6] = second compound 0.1 µM, first compound 0.0316 µM
[7] = second compound 0.1 µM, first compound 0.1 µM
[8] = second compound 0.1 µM, first compound 0.316 µM
[9] = second compound 0.1 µM, first compound 1 µM
[10] = second compound 0.1 µM, first compound 3.16 µM
[11] = second compound 0.1 µM, first compound 10 µM
[12] = second compound 0.316 µM, first compound 0.0316 µM
[13] = second compound 0.316 µM, first compound 0.1 µM
[14] = second compound 0.316 µM, first compound 0.316 µM
[15] = second compound 0.316 µM, first compound 1 µM
[16] = second compound 0.316 µM, first compound 3.16 µM
[17] = second compound 0.316 µM, first compound 10 µM
[18] = second compound 1 µM, first compound 0.0316 µM
[19] = second compound 1 µM, first compound 0.1 µM
[20] = second compound 1 µM, first compound 0.316 µM
[21] = second compound 1 µM, first compound 1 µM
[22] = second compound 1 µM, first compound 3.16 µM
[23] = second compound 1 µM, first compound 10 µM
[24] = second compound 3.16 µM, first compound 0.0316 µM
[25] = second compound 3.16 µM, first compound 0.1 µM
[26] = second compound 3.16 µM, first compound 0.316 µM
[27] = second compound 3.16 µM, first compound 1 µM
[28] = second compound 3.16 µM, first compound 3.16 µM
[29] = second compound 3.16 µM, first compound 10 µM
[30] = second compound 10 µM, first compound 0.0316 µM
[31] = second compound 10 µM, first compound 0.1 µM
[32] = second compound 10 µM, first compound 0.316 µM
[33] = second compound 10 µM, first compound 1 µM
[34] = second compound 10 µM, first compound 3.16 µM
[35] = second compound 10 µM, first compound 10 µM
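Further: drug exposure lasted seven days after spheroids formed for three days.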
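Wherever viability, T/C is given: percent of DMSO vehicle control viability which is 100%.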

**Q.** `CC(C)NCC(C(=O)N1CCN(c2ncnc3c2C(C)CC3O)CC1)c1ccc(Cl)cc1` (centres undefined) + CC1OCC2(CCN(c3cnc(Sc4ccnc(N)c4Cl)c(N)n3)CC2)C1N was tested. Which IC50 [1] did it give?
**A.** 5030 nM

**Q.** And the IC50 [2]?
**A.** 3620 nM

**Q.** And the IC50 [3]?
**A.** < 31.6 nM

**Q.** What about the IC50 [4] of the same molecule?
**A.** < 31.6 nM

**Q.** And the IC50 [5]?
**A.** < 31.6 nM

**Q.** And the viability, T/C [6]?
**A.** 67.3%

**Q.** What about the viability, T/C [7] of the same molecule?
**A.** 65.3%

**Q.** And the viability, T/C [8]?
**A.** 65%

**Q.** What about the viability, T/C [9] of the same molecule?
**A.** 67%

**Q.** What about the viability, T/C [10] of the same molecule?
**A.** 58%

**Q.** What about the viability, T/C [11] of the same molecule?
**A.** 36.8%

**Q.** And the viability, T/C [12]?
**A.** 51.1%

**Q.** What about the viability, T/C [13] of the same molecule?
**A.** 57%

**Q.** And the viability, T/C [14]?
**A.** 56.8%

**Q.** And the viability, T/C [15]?
**A.** 55.7%

**Q.** What about the viability, T/C [16] of the same molecule?
**A.** 52.3%

**Q.** What about the viability, T/C [17] of the same molecule?
**A.** 31.1%

**Q.** What about the viability, T/C [18] of the same molecule?
**A.** 46.2%

**Q.** And the viability, T/C [19]?
**A.** 42.9%

**Q.** What about the viability, T/C [20] of the same molecule?
**A.** 48.1%

**Q.** What about the viability, T/C [21] of the same molecule?
**A.** 46.1%

**Q.** And the viability, T/C [22]?
**A.** 39.3%

**Q.** What about the viability, T/C [23] of the same molecule?
**A.** 25.9%

**Q.** And the viability, T/C [24]?
**A.** 36.1%

**Q.** What about the viability, T/C [25] of the same molecule?
**A.** 36.5%

**Q.** What about the viability, T/C [26] of the same molecule?
**A.** 39.9%

**Q.** What about the viability, T/C [27] of the same molecule?
**A.** 41.7%

**Q.** What about the viability, T/C [28] of the same molecule?
**A.** 37.4%

**Q.** And the viability, T/C [29]?
**A.** 22.7%

**Q.** And the viability, T/C [30]?
**A.** 33.6%

**Q.** And the viability, T/C [31]?
**A.** 33.8%

**Q.** And the viability, T/C [32]?
**A.** 39.4%

**Q.** And the viability, T/C [33]?
**A.** 33.8%

**Q.** What about the viability, T/C [34] of the same molecule?
**A.** 32.9%

**Q.** What about the viability, T/C [35] of the same molecule?
**A.** 20.6%

**Q.** For `Cn1ncnc1[C@H]1c2n[nH]c(=O)c3cc(F)cc(c23)N[C@@H]1c1ccc(F)cc1`, which viability, T/C (compound 0.000316 µM) is on record?
**A.** 99.3% [middle of 5 runs]

**Q.** And the viability, T/C (compound 0.001 µM)?
**A.** 99.4% [middle of 5 runs]

**Q.** And the viability, T/C (compound 0.00316 µM)?
**A.** 93.5% [middle of 5 runs]

**Q.** And the viability, T/C (compound 0.01 µM)?
**A.** 89.9% [middle of 5 runs]

**Q.** What about the viability, T/C (compound 0.0316 µM) of the same molecule?
**A.** 84.1% [middle of 5 runs]

**Q.** And the viability, T/C (compound 0.1 µM)?
**A.** 74.5% [middle of 5 runs]

**Q.** What about the IC50 (curve of compound) of the same molecule?
**A.** > 100 nM

**Q.** What does the source list for `CC1(C)CCC(CN2CCN(c3ccc(C(=O)NS(=O)(=O)c4ccc(NCC5CCOCC5)c([N+](=O)[O-])c4)c(Oc4cnc5[nH]ccc5c4)c3)CC2)=C(c2ccc(Cl)cc2)C1` + CNCc1ccccc1-c1csc(C(C)Nc2nc(C)nc3cc(OC)c(OC)cc23)c1?
**A.** IC50 [1]: 1950 nM; IC50 [2]: 2130 nM; IC50 [3]: 1380 nM; IC50 [4]: < 31.6 nM; IC50 [5]: < 31.6 nM; viability, T/C [6]: 94.3%; viability, T/C [7]: 93.4%; viability, T/C [8]: 102%; viability, T/C [9]: 88.4%; viability, T/C [10]: 22%; viability, T/C [11]: 8.05%; viability, T/C [12]: 87.7%; viability, T/C [13]: 86.9%; viability, T/C [14]: 94.4%; viability, T/C [15]: 86.6%; viability, T/C [16]: 30.8%; viability, T/C [17]: 6.47%; viability, T/C [18]: 60.5%; viability, T/C [19]: 62.5%; viability, T/C [20]: 68.2%; viability, T/C [21]: 66.6%; viability, T/C [22]: 13%; viability, T/C [23]: 5.94%; viability, T/C [24]: 0.12%; viability, T/C [25]: 1.9%; viability, T/C [26]: 0.25%; viability, T/C [27]: 0.79%; viability, T/C [28]: 0.4%; viability, T/C [29]: 0.64%; viability, T/C [30]: 0.08%; viability, T/C [31]: 0.08%; viability, T/C [32]: 0.23%; viability, T/C [33]: 0.08%; viability, T/C [34]: 0.09%; viability, T/C [35]: 0.28%

**Q.** How did the viability, T/C (compound 0.01 µM) turn out when `CC1COCCN1c1cc(-c2ccnn2C)c2ccnc(-c3ccn[nH]3)c2n1` (centres undefined) was run?
**A.** 48% [middle of 5 runs]

**Q.** And the viability, T/C (compound 0.0316 µM)?
**A.** 23.6% [middle of 5 runs]

**Q.** And the viability, T/C (compound 0.1 µM)?
**A.** 16.1% [middle of 5 runs]

**Q.** And the viability, T/C (compound 0.316 µM)?
**A.** 14.2% [middle of 5 runs]

**Q.** And the viability, T/C (compound 1 µM)?
**A.** 14.4% [middle of 5 runs]

**Q.** And the viability, T/C (compound 3.16 µM)?
**A.** 16% [middle of 5 runs]

**Q.** What about the IC50 (curve of compound) of the same molecule?
**A.** < 10 nM
